In patent US8399473:

Settings: from C=Cc1ccc(N2C(=O)N=C(NC3CCCCC3)C23CCN(Cc2ccc(I)cc2)CC3)cc1; cc_pd bond; 2 steps

`O=C1N=C(NC2CCCCC2)C23CCN(CC2)Cc2ccc(cc2)CCc2ccc(cc2)N13` gave a ring closure, yield of all isomers of 2.3%.
